{"source": "paper PMC3954902", "about": "(Journal of medicinal chemistry, 2013)", "key": {"[1]": {"system": "HCV genotype 1b subgenomic replicon in Huh-5-2 cells", "test": "Replicon assay on Huh5-2", "assay_type": "cell-based, Hepatitis C virus", "conditions": "for Replicon assay on Huh5-2 SI (ratio of CC50 to EC50): Huh-5-2 cells; for anti-HCV activity and toxicity in words: Huh-5-2 replicon and MTS"}, "[2]": {"system": "NS5B", "conditions": "read-out: NS5B IC50 reported by Kumar et al.; literature value; cited from earlier work"}, "[3]": {"biological_target": "recombinant HCV NS5BCΔ21 (Hepatitis C virus genotype 1b, UniProt O92972)", "test": "NS5B polymerase primer-dependent elongation assay", "assay_type": "biochemical, HCV genotype 1b (HC-J4)", "conditions": "for fold reduction in potency against NS5B relative to derivative 8: ratio of IC50 values vs 8"}, "[4]": {"system": "Huh-9-13 cells", "test": "MTS assay and microscopic analysis on Huh 9-13 cells", "assay_type": "cell-based"}}, "data": [{"compound": "COc1cc2c(=O)c(C(=O)OCc3ccc(C)cc3)cn(Cc3ccc(C(F)(F)F)cc3F)c2cc1OC", "note": "[Compound 2, reference compound]", "values": [{"measurement": "selectivity of anti-HCV effect from dose-response curve", "setting": "[1]; Huh-5-2, data not shown", "result": "non-selective anti-HCV agent"}, {"measurement": "IC50", "setting": "[2]", "result": 8, "unit": "nM"}]}, {"compound": "Cc1ccc(COC(=O)c2cn(Cc3ccc(C(F)(F)F)cc3F)c3cc(Cl)c(N)cc3c2=O)cc1", "note": "[Compound 4, 4-Methylbenzyl 6-amino-7-chloro-1-[2-fluoro-4-(trifluoromethyl)benzyl]-4-oxo-1,4-dihydro-3-quinolinecarboxylate]", "values": [{"measurement": "Replicon assay on Huh5-2 SI (ratio of CC50 to EC50)", "setting": "[1]", "result": ">2.5"}, {"measurement": "anti-HCV activity and toxicity in words", "setting": "[1]", "result": "neither active nor toxic"}]}, {"compound": "Nc1cc2c(=O)c(C(=O)OCc3ccc(Cl)cc3)cn(Cc3ccc(Cl)cc3)c2cc1Cl", "note": "[Compound 5, 4-Chlorobenzyl 6-amino-7-chloro-1-(4-chlorobenzyl)-4-oxo-1,4-dihydro-3-quinolinecarboxylate]", "values": [{"measurement": "inhibition of NS5B RdRp activity in preliminary screening", "setting": "[3]; 25 µM compound concentration", "result": "inactive"}, {"measurement": "anti-HCV activity and toxicity in words", "setting": "[1]", "result": "neither active nor toxic"}]}, {"compound": "CN1CCN(c2cc3c(cc2N)c(=O)c(C(=O)OCc2ccc(Cl)cc2)cn3Cc2ccc(Cl)cc2)CC1", "note": "[Compound 7, 4-Chlorobenzyl 6-amino-1-(4-chlorobenzyl)-7-(4-methyl-1-piperazinyl)-4-oxo-1,4-dihydro-3-quinolinecarboxylate]", "values": [{"measurement": "fold higher NS5B inhibition than reference compound 2", "setting": "[3]; head to head, same assay conditions", "result": 5, "unit": "fold"}]}, {"compound": "Nc1cc2c(=O)c(C(=O)OCc3ccc(Cl)cc3)cn(Cc3ccc(Cl)cc3)c2cc1N1CCN(c2ccccn2)CC1", "note": "[Compound 8, 4-Chlorobenzyl 6-amino-1-(4-chlorobenzyl)-4-oxo-7-[4-(2-pyridinyl)-1-piperazinyl]-1,4-dihydro-3-quinolinecarboxylate]", "values": [{"measurement": "cellular morphology by microscopic analysis", "setting": "[4]", "result": "cell aggregation"}]}, {"compound": "Nc1cc2c(=O)c(C(=O)OCc3ccc(Cl)cc3)cn(Cc3ccc(Cl)cc3)c2cc1N1CCN(c2nc3ccccc3s2)CC1", "note": "[Compound 9, 4-Chlorobenzyl 6-amino-7-[4-(1,3-benzothiazol-2-yl)-1-piperazinyl]-1-(4-chlorobenzyl)-4-oxo-1,4-dihydro-3-quinolinecarboxylate]", "values": [{"measurement": "Replicon assay on Huh5-2 SI (ratio of CC50 to EC50)", "setting": "[1]", "result": ">17"}]}, {"compound": "Nc1cc2c(=O)c(C(=O)OCc3ccc(Cl)cc3)cn(Cc3ccc(Cl)cc3)c2cc1N1CCN(c2cccc(C(F)(F)F)c2)CC1", "note": "[Compound 10, 4-Chlorobenzyl 6-amino-1-(4-chlorobenzyl)-4-oxo-7-{4-[3-(trifluoromethyl)phenyl]-1-piperazinyl}-1,4-dihydro-3-quinolinecarboxylate]", "values": [{"measurement": "Replicon assay on Huh5-2 SI (ratio of CC50 to EC50)", "setting": "[1]", "result": ">6"}]}, {"compound": "CCOC(=O)c1cn(Cc2ccc(Cl)cc2)c2cc(N3CCN(c4ccccn4)CC3)c(N)cc2c1=O", "note": "[Compound 27, Ethyl 6-amino-1-(4-chlorobenzyl)-4-oxo-7-[4-(2-pyridinyl)-1-piperazinyl]-1,4-dihydro-3-quinolinecarboxylate]", "values": [{"measurement": "fold reduction in potency against NS5B relative to derivative 8", "setting": "[3]", "result": "~ 45 fold"}]}, {"compound": "Nc1cc2c(=O)c(C(=O)O)cn(Cc3ccc(Cl)cc3)c2cc1N1CCN(c2ccccn2)CC1", "note": "[Compound 28, 6-amino-1-(4-chlorobenzyl)-4-oxo-7-[4-(2-pyridinyl)-1-piperazinyl]-1,4-dihydro-3-quinolinecarboxylic acid]", "values": [{"measurement": "fold reduction in potency against NS5B relative to derivative 8", "setting": "[3]", "result": 345, "unit": "fold"}, {"measurement": "Replicon assay on Huh5-2 SI (ratio of CC50 to EC50)", "setting": "[1]", "result": ">28"}]}]}
